These compounds were tested on B cell receptor-mediated activation of B cells in human blood (CD69 expression) (assay: Inhibition of B cell activation in whole blood measured by CD69 expression). Conditions: anti-IgM stimulation, 20 h, 50% decrease of CD69-positive cells that are also CD20-positive.
Type: cell-based
Experimental: Inhibition of B Cell Activation in Whole Blood Measured by CD69 Expression
A procedure to test the ability of Btk inhibitors to suppress B cell receptor-mediated activation of B cells in human blood is as follows:
Human whole blood (HWB) is obtained from healthy volunteers, with the following restrictions: 24 hr drug-free, non-smokers. Blood is collected by venipuncture into Vacutainer tubes anticoagulated with sodium heparin. Test compounds are diluted to ten times the desired starting drug concentration in PBS (20×), followed by three-fold serial dilutions in 10% DMSO in PBS to produce a nine point dose-response curve. 5.5 μl of each compound dilution is added in duplicate to a 2 ml 96-well V bottom plate (Analytical Sales and Services, #59623-23); 5.5 μl of 10% DMSO in PBS is added to control and no-stimulus wells. HWB (100 μl) is added to each well, and after mixing the plates are incubated at 37 C, 5% CO2, 100% humidity for 30 minutes. Goat F(ab′)2 anti-human IgM (Southern Biotech, #2022-14) (10 μl of a 500 μg/ml solution, 50 μg/ml final concentration) is added to each well (except the no-stimulus wells) with mixing and the plates are incubated for an additional 20 hours.
At the end of the 20 hour incubation, samples are incubated with florescent-probe-labeled anti-bodies (15 μl PE Mouse anti-Human CD20, BD Pharmingen, #555623, and/or 20 ul APC Mouse anti-Human CD69, BD Pharmingen #555533) for 30 minutes, at 37 C, 5% CO2, 100% humidity. Included are induced control, unstained and single stains for compensation adjustments and initial voltage settings. Samples are then lysed with 1 ml of 1× Pharmingen Lyse Buffer (BD Pharmingen #555899), and plates are centrifuged at 1800 rpm for 5 minutes. Supernatants are removed via suction and the remaining pellets are lysed again with another 1 ml of 1× Pharmingen Lyse Buffer, and plates are spun down as before. Supernatants are aspirated and remaining pellets are washed in FACs buffer (PBS+1% FBS). After a final spin, the supernantants are removed and pellets are resuspended in 180 μl of FACs buffer. Samples are transferred to a 96 well plate suitable to be run on the HTS 96 well system on the BD LSR II flow cytometer.
Using appropriate excitation and emission wavelengths for the fluorophores used, data are acquired and percent positive cell values are obtained using Cell Quest Software. Results are initially analyzed by FACS analysis software (Flow Jo). […] The IC50 values are calculated using XLfit software version 3, equation 201.
`CN1CCN(c2ccc(Nc3cc(-c4cccc(-n5ccc6cc(C7(C)CC7)cc(F)c6c5=O)c4CO)cn(C)c3=O)nc2)CC1` [Example I-55, 8-Fluoro-2-(2-hydroxymethyl-3-{1-methyl-5-[5-(4-methyl-piperazin-1-yl)-pyridin-2-ylamino]-6-oxo-1,6-dihydro-pyridin-3-yl}-phenyl)-6-(1-methyl-cyclopropyl)-2H-isoquinolin-1-one] showed an IC50 of 16 nM.
`Cn1cc(-c2cccc(-n3ccc4cc(C5CC5)cc(F)c4c3=O)c2CO)cc(Nc2ccc(N3CCC(C)(O)CC3)cn2)c1=O` [Example I-57, 6-Cyclopropyl-8-fluoro-2-{2-hydroxymethyl-3-[5-(4-hydroxy-4-methyl-3,4,5,6-tetrahydro-2H-[1,3′]bipyridinyl-6′-ylamino)-1-methyl-6-oxo-1,6-dihydro-pyridin-3-yl]-phenyl}-2H-isoquinolin-1-one] showed an IC50 of 18 nM.
For `Cn1cc(-c2cccc(-n3ccc4cc(C(C)(C)O)cc(F)c4c3=O)c2CO)cc(Nc2ccc(N3CCC(C)(O)CC3)cn2)c1=O` [Example I-58, 8-Fluoro-6-(1-hydroxy-1-methyl-ethyl)-2-{2-hydroxymethyl-3-[5-(4-hydroxy-4-methyl-3,4,5,6-tetrahydro-2H-[1,3′]bipyridinyl-6′-ylamino)-1-methyl-6-oxo-1,6-dihydro-pyridin-3-yl]-phenyl}-2H-isoquinolin-1-one], the IC50 was 6 nM.
Compound `CN1CCN(c2ccc(Nc3cc(-c4cccc(-n5ccc6cc(C(C)(C)O)cc(F)c6c5=O)c4CO)cn(C)c3=O)nc2)CC1` [Example I-59, 8-Fluoro-6-(1-hydroxy-1-methyl-ethyl)-2-(2-hydroxymethyl-3-{1-methyl-5-[5-(4-methyl-piperazin-1-yl)-pyridin-2-ylamino]-6-oxo-1,6-dihydro-pyridin-3-yl}-phenyl)-2H-isoquinolin-1-one] has an IC50 of 3 nM.
Work on `Cn1cc(-c2cccc(-n3ccc4cc(C5(C)CC5)cc(F)c4c3=O)c2CO)cc(Nc2ccc(C(=O)N3CCOCC3)cn2)c1=O` [Example I-60, 8-Fluoro-2-(2-hydroxymethyl-3-{1-methyl-5-[5-(morpholine-4-carbonyl)-pyridin-2-ylamino]-6-oxo-1,6-dihydro-pyridin-3-yl}-phenyl)-6-(1-methyl-cyclopropyl)-2H-isoquinolin-1-one] yielded an IC50 of 16 nM.
`Cn1cc(-c2cccc(-n3ccc4cc(C5(C)CC5)cc(F)c4c3=O)c2CO)cc(Nc2ccc(S(C)(=O)=O)cn2)c1=O` [Example I-61, 8-Fluoro-2-{2-hydroxymethyl-3-[5-(5-methanesulfonyl-pyridin-2-ylamino)-1-methyl-6-oxo-1,6-dihydro-pyridin-3-yl]-phenyl}-6-(1-methyl-cyclopropyl)-2H-isoquinolin-1-one] was tested, and the IC50 was 51 nM.
`Cn1cc(-c2cccc(-n3ccc4cc(C5CC5)cc(F)c4c3=O)c2CO)cc(Nc2ccc(S(C)(=O)=O)cn2)c1=O` [Example I-62, 6-Cyclopropyl-8-fluoro-2-{2-hydroxymethyl-3-[5-(5-methanesulfonyl-pyridin-2-ylamino)-1-methyl-6-oxo-1,6-dihydro-pyridin-3-yl]-phenyl}-2H-isoquinolin-1-one] gave an IC50 of 92 nM.
Work on `Cn1cc(-c2cccc(-n3ccc4cc(C(C)(C)C)cc(F)c4c3=O)c2CO)cc(Nc2ccc(C(=O)N3CCOCC3)cn2)c1=O` [Example I-63, 6-tert-Butyl-8-fluoro-2-(2-hydroxymethyl-3-{1-methyl-5-[5-(morpholine-4-carbonyl)-pyridin-2-ylamino]-6-oxo-1,6-dihydro-pyridin-3-yl}-phenyl)-2H-isoquinolin-1-one] yielded an IC50 of 16 nM.
Work on `CCC(O)(CC)c1cc(F)c2c(=O)n(-c3cccc(-c4cc(Nc5ccc(N6CCC(C)(O)CC6)cn5)c(=O)n(C)c4)c3CO)ccc2c1` [Example I-64, 6-(1-Ethyl-1-hydroxy-propyl)-8-fluoro-2-{2-hydroxymethyl-3-[5-(4-hydroxy-4-methyl-3,4,5,6-tetrahydro-2H-[1,3′]bipyridinyl-6′-ylamino)-1-methyl-6-oxo-1,6-dihydro-pyridin-3-yl]-phenyl}-2H-isoquinolin-1-one] yielded an IC50 of 27 nM.
`Cn1cc(-c2cccc(-n3ccc4cc(C(C)(C)C#N)cc(F)c4c3=O)c2CO)cc(Nc2ccc(OCCO)cn2)c1=O` [Example I-65, 2-[8-Fluoro-2-(3-{5-[5-(2-hydroxy-ethoxy)-pyridin-2-ylamino]-1-methyl-6-oxo-1,6-dihydro-pyridin-3-yl}-2-hydroxymethyl-phenyl)-1-oxo-1,2-dihydro-isoquinolin-6-yl]-2-methyl-propionitrile] showed an IC50 of 19 nM.
Compound `Cn1cc(-c2cccc(-n3ccc4cc(C5CC5)cc(F)c4c3=O)c2CO)cc(Nc2ccc(C(C)(C)C(=O)O)cn2)c1=O` [Example I-68, 2-(6-{5-[3-(6-Cyclopropyl-8-fluoro-1-oxo-1H-isoquinolin-2-yl)-2-hydroxymethyl-phenyl]-1-methyl-2-oxo-1,2-dihydro-pyridin-3-ylamino}-pyridin-3-yl)-2-methyl-propionic acid] has an IC50 of 213 nM.
`CNC(=O)C(C)(C)c1ccc(Nc2cc(-c3cccc(-n4ccc5cc(C6CC6)cc(F)c5c4=O)c3CO)cn(C)c2=O)nc1` [Example I-69, 2-(6-{5-[3-(6-Cyclopropyl-8-fluoro-1-oxo-1H-isoquinolin-2-yl)-2-hydroxymethyl-phenyl]-1-methyl-2-oxo-1,2-dihydro-pyridin-3-ylamino}-pyridin-3-yl)-N-methyl-isobutyramide] showed an IC50 of 33 nM.
For `CN(C)C(=O)C(C)(C)c1ccc(Nc2cc(-c3cccc(-n4ccc5cc(C6CC6)cc(F)c5c4=O)c3CO)cn(C)c2=O)nc1` [Example I-70, 2-(6-{5-[3-(6-Cyclopropyl-8-fluoro-1-oxo-1H-isoquinolin-2-yl)-2-hydroxymethyl-phenyl]-1-methyl-2-oxo-1,2-dihydro-pyridin-3-ylamino}-pyridin-3-yl)-N,N-dimethyl-isobutyramide], the IC50 was 22 nM.
With `CN1CC(Oc2ccc(Nc3cc(-c4cccc(-n5ccc6cc(C7CC7)cc(F)c6c5=O)c4CO)cn(C)c3=O)nc2)C1` [Example I-71, 6-Cyclopropyl-8-fluoro-2-(2-hydroxymethyl-3-{1-methyl-5-[5-(1-methyl-azetidin-3-yloxy)-pyridin-2-ylamino]-6-oxo-1,6-dihydro-pyridin-3-yl}-phenyl)-2H-isoquinolin-1-one] the IC50 was 39 nM.
For `Cn1cc(-c2cccc(-n3ccc4cc(C5CC5)cc(F)c4c3=O)c2CO)cc(Nc2ccc(C(C)(C)O)cn2)c1=O` [Example I-72, 6-Cyclopropyl-8-fluoro-2-(2-hydroxymethyl-3-{5-[5-(1-hydroxy-1-methyl-ethyl)-pyridin-2-ylamino]-1-methyl-6-oxo-1,6-dihydro-pyridin-3-yl}-phenyl)-2H-isoquinolin-1-one], the IC50 was 20 nM.
In the case of `CN1CCN(Cc2ccc(Nc3cc(-c4cccc(-n5ccc6cc(C7CC7)cc(F)c6c5=O)c4CO)cn(C)c3=O)nc2)CC1` [Example I-73, 6-Cyclopropyl-8-fluoro-2-(2-hydroxymethyl-3-{1-methyl-5-[5-(4-methyl-piperazin-1-ylmethyl)-pyridin-2-ylamino]-6-oxo-1,6-dihydro-pyridin-3-yl}-phenyl)-2H-isoquinolin-1-one], the IC50 is reported as 24 nM.
`CC(O)c1ccc(Nc2cc(-c3cccc(-n4ccc5cc(C6CC6)cc(F)c5c4=O)c3CO)cn(C)c2=O)nc1` (centres unmarked) [Example I-74, 6-Cyclopropyl-8-fluoro-2-(3-{5-[5-(1-hydroxy-ethyl)-pyridin-2-ylamino]-1-methyl-6-oxo-1,6-dihydro-pyridin-3-yl}-2-hydroxymethyl-phenyl)-2H-isoquinolin-1-one] gave an IC50 of 29 nM.
`COCCNCc1ccc(Nc2cc(-c3cccc(-n4ccc5cc(C6CC6)cc(F)c5c4=O)c3CO)cn(C)c2=O)nc1` [Example I-75, 6-Cyclopropyl-8-fluoro-2-[2-hydroxymethyl-3-(5-{5-[(2-methoxy-ethylamino)-methyl]-pyridin-2-ylamino}-1-methyl-6-oxo-1,6-dihydro-pyridin-3-yl)-phenyl]-2H-isoquinolin-1-one] showed an IC50 of 37 nM.
`Cn1cc(-c2cccc(-n3ccc4cc(C5CC5)cc(F)c4c3=O)c2CO)cc(Nc2ccc(C(C)(C)N)cn2)c1=O` [Example I-76, 2-(3-{5-[5-(1-Amino-1-methyl-ethyl)-pyridin-2-ylamino]-1-methyl-6-oxo-1,6-dihydro-pyridin-3-yl}-2-hydroxymethyl-phenyl)-6-cyclopropyl-8-fluoro-2H-isoquinolin-1-one] showed an IC50 of 40 nM.
With `CCNCc1ccc(Nc2cc(-c3cccc(-n4ccc5cc(C6CC6)cc(F)c5c4=O)c3CO)cn(C)c2=O)nc1` [Example I-77, 6-Cyclopropyl-2-{3-[5-(5-ethylaminomethyl-pyridin-2-ylamino)-1-methyl-6-oxo-1,6-dihydro-pyridin-3-yl]-2-hydroxymethyl-phenyl}-8-fluoro-2H-isoquinolin-1-one] the IC50 was 20 nM.
